For orientation: IC50 means the midpoint of a concentration-inhibition curve.

Common to all, as to assay type: biochemical
One assay has as its target T1, human 11-beta HSD-1 (Homo sapiens, UniProt P28845).
T1 construct: made in house; host or cells: E. coli
The assay can be described thus: 11beta-HSD1 enzyme assay, human recombinant enzyme from E. coli, HTRF cortisol detection. The note with it: cortisone/NADPH 200 nM/200 μM, 150 min at 37° C., read-out: Inhibition of human 11-beta HSD-1 IC50. The protocol: (§1) Human recombinant 11beta-hydroxysteroid dehydrogenase type 1 (11beta-HSD1) enzyme and type 2 (11beta-HSD2) enzymes were expressed expressed in E. coli. Mice liver microsome fractions were purchased from TEBU.
(§2) The 11beta-HSD1 enzyme assay was carried out in 96 well microliter plates in a total volume of 100 μl containing 30 mM Hepes buffer, pH 7.4 with 1 mM EDTA, substrate mixture cortisone/NADPH (200 nM/200 μM), G-6-P (1 mM) and inhibitors in serial dilutions. Reactions were initiated by addition of 10 μl 11beta-HSD1 (3 μg) from E. coli, or as microsome fractions from mice liver (2.5 μg). Following mixing, the plates were shaken for 150 minutes at 37° C. The reactions were terminated with 10 μl Acid-18beta glycyrrhetinic stop solution. Determinations of cortisol levels in 11 beta-HSD1 preparations were monitored by HTRF (HTRF cortisol assay from C is bio international).
(§3) Activity is expressed in % of control or concentration to inhibit 50% of the enzyme activity (IC50).
In general terms: TR-FRET usually uses a lanthanide donor and a delayed reading to cut background.

Another assay concerns the target T2, mouse 11-beta HSD-1 (Mus musculus, UniProt P50172).
T2 construct: or as microsome fractions from mice liver (2.5 μg); tissue TEBU; host or cells: mouse liver microsome fractions
The assay can be described thus: 11beta-HSD1 enzyme assay, mice liver microsome fractions, HTRF cortisol detection. The note with it: for IC50: read-out: Inhibition of mouse 11-beta HSD-1 IC50. The protocol:
as §1, §2, §3

Another assay concerns the target T3, human 11-beta HSD-2 (Homo sapiens, UniProt P80365).
T3 construct: made in house; host or cells: E. coli
T3 sequence (P80365 1-405): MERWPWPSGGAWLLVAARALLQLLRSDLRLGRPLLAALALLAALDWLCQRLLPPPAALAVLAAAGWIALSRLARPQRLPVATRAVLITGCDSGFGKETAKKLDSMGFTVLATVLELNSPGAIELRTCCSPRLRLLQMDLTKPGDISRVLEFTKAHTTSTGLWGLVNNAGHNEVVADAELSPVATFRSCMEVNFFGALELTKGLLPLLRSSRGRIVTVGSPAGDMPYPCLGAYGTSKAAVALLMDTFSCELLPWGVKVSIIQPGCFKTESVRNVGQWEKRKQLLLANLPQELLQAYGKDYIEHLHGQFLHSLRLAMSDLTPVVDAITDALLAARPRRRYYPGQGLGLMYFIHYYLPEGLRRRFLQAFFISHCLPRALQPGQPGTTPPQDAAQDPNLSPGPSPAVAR
In words: 11beta-HSD2 enzyme assay, human recombinant enzyme (cortisol, NAD, carbenoxolone stop). The note with it: for IC50: read-out: Inhibition of human 11-beta HSD-2 IC50; for Selectivity Ratio human HSD2/HSD1: ratio of IC50 human HSD-2 to human HSD-1. The protocol: [Worded in the source for another target; used here, by the source, with some conditions changed.] as §1, §2, §3

T1 sequence (P28845 whole entry): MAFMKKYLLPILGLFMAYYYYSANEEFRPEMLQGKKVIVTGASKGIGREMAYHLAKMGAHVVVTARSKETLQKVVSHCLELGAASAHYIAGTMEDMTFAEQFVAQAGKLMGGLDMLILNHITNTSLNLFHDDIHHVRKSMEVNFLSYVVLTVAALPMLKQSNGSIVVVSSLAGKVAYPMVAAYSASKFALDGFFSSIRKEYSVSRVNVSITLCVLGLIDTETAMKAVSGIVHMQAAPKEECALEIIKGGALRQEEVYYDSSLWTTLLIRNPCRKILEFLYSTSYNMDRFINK
T2 sequence (P50172 whole entry): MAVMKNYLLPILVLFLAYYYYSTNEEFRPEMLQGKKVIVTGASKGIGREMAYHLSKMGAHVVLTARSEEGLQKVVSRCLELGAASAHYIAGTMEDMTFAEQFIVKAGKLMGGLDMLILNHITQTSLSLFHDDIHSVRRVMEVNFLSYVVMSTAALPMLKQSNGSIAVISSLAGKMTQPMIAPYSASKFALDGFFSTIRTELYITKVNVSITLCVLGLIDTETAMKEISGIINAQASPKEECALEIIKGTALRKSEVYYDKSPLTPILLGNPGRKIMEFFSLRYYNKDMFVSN

Take `O=C(CN1CCCN(S(=O)(=O)c2ccccc2F)CC1)N(C1CCCCC1)C1CC1` [Ex 3, N-Cyclohexyl-N-cyclopropyl-2-[4-(2-fluoro-benzenesulfonyl)-[1,4]diazepan-1-yl]-acetamide]: the half-inhibitory concentration (IC50) amounted to 76 nM at human 11-beta HSD-1, 230 nM at mouse 11-beta HSD-1 and 7000 nM at human 11-beta HSD-2 (human recombinant enzyme). For the same compound, the “Selectivity Ratio human HSD2/HSD1” value at human 11-beta HSD-2 stood at 92.

In the case of `O=C(CN1CCCN(S(=O)(=O)c2ccccc2Cl)CC1)N1CCCCC1` [Ex 3-6, 2-[4-(2-Chloro-benzenesulfonyl)-[1,4]diazepan-1-yl]-1-piperidin-1-yl-ethanone], the IC50 on human 11-beta HSD-1 is 420 nM.

For the compound `O=C(CN1CCCN(S(=O)(=O)c2ccccc2F)CC1)N1CCCC2CCCCC21` (centres unmarked) [Ex 2-1, 2-[4-(2-Fluoro-benzenesulfonyl)-[1,4]diazepan-1-yl]-1-(octahydro-quinolin-1-yl)-ethanone], the IC50 was determined as 27 nM at human 11-beta HSD-1 and 3000 nM on human 11-beta HSD-2 (human recombinant enzyme). Moreover, the “Inhibition of mouse 11-beta HSD-1, activity in % of control” value at mouse 11-beta HSD-1 (at 1 μM) was 53% of Ctrl. Further, the “Selectivity Ratio human HSD2/HSD1” value on human 11-beta HSD-2 was found to be 111.

In the case of `O=C(CN1CCCN(S(=O)(=O)c2c(F)cccc2F)CC1)N1CCCC2CCCCC21` (centres unmarked) [Ex 2-2, 2-[4-(2,6-Difluoro-benzenesulfonyl)-[1,4]diazepan-1-yl]-1-(octahydro-quinolin-1-yl)-ethanone], the concentration for half-maximal inhibition (IC50) on human 11-beta HSD-1 is 17 nM.

Take `O=C(CN1CCCN(S(=O)(=O)c2ccccc2F)CC1)N1CCC2(C=Cc3ccccc32)CC1` [Ex 3-10, 2-[4-(2-fluoro-benzenesulfonyl)-[1,4]diazepan-1-yl]-1-spiro[1H-inden-1,4′piperidin-1-yl)-ethanone]: the IC50 at human 11-beta HSD-1 worked out at 122 nM.

Take `O=C(CN1CCCN(S(=O)(=O)c2ccccc2Cl)CC1)N1CCCC2CCCCC21` (centres unmarked) [Ex 2, 2-[4-(2-Chloro-benzenesulfonyl)-[1,4]diazepan-1-yl]-1-(octahydro-quinolin-1-yl)-ethanone]: the IC50 on mouse 11-beta HSD-1 is 250 nM. The “Inhibition of human 11-beta HSD-2, activity in % of control” value on human 11-beta HSD-2 (at 10 μM, human recombinant enzyme) is 81% of Ctrl.

Turning to `CN(C(=O)CN1CCCN(S(=O)(=O)c2ccccc2F)CC1)C1CCCCC1` [Ex 3-3, N-Cyclohexyl-2-[4-(2-fluoro-benzenesulfonyl)-[1,4]diazepan-1-yl]-N-methyl-acetamide], the IC50 on human 11-beta HSD-1 is 430 nM.

For the origin of these results see patent US8586577B2, “Diazepane acetamide derivatives as selective 11B-HSD1 inhibitors” (Merck Patent GmbH, priority 2006, dated 2013).
